Data from ChEMBL document CHEMBL1201862, “PubChem BioAssay data set” (2004).
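Interpolation was linear, between the two tested concentrations surrounding the appropriate level; five concentrations were tested over 48 hours in 96-well plates. Here, GI50 denotes the concentration required for 50% inhibition of growth.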 Calls of active or inactive are those of the source. Rule as the data show it: active = GI50 up to about 1.1 µM and inactive = higher.

Tests used:
Assay in all cases: growth of human tumour cells (NCI), 48 h
[1] = tested on: DMS-114
[2] = tested on: SNB-78
[3] = tested on: M19-MEL
[4] = tested on: HOP-18
[5] = tested on: RXF 631
[6] = tested on: LXFL 529
[7] = tested on: KM-20L2
[8] = tested on: XF498
[9] = tested on: DMS-273

SMILES | GI50 [1] | GI50 [2] | GI50 [3] | GI50 [4] | GI50 [5] | GI50 [6] | GI50 [7] | GI50 [8] | GI50 [9]
COc1ccc(C(=O)/C(=N/Nc2ccccc2)c2ccc(OC)cc2)cc1 | 58.1 µM (inactive) | > 100 µM (inactive) | > 100 µM (inactive) | > 100 µM (inactive) | 8.43 µM (inactive) | 25.2 µM (inactive) | 10.2 µM (inactive) | > 100 µM (inactive) | 31.6 µM (inactive)
O=[N+]([O-])C(/C=N/Nc1ccccc1)/C=N/Nc1ccccc1 | > 100 µM (inactive) | > 100 µM (inactive) | > 100 µM (inactive) | > 100 µM (inactive) |  | > 100 µM (inactive) | > 100 µM (inactive) | > 100 µM (inactive) | > 100 µM (inactive)
COc1ccc(CNC2=C(NC(C)=O)C(=O)c3ccccc3C2=O)cc1 |  | 11.9 µM (inactive) | 9.48 µM (inactive) |  |  | 8.07 µM (inactive) | 28.8 µM (inactive) |  | 16.4 µM (inactive)
COC(=O)C(/C(=N\O)C(=O)Nc1ccc(Br)cc1)c1nc2ccccc2nc1O (stereo unspecified) | 20.9 µM (inactive) | 96.6 µM (inactive) | 26.1 µM (inactive) | 52.4 µM (inactive) | 46.9 µM (inactive) | 28.6 µM (inactive) | 44 µM (inactive) |  | 31.1 µM (inactive)
Cc1ccc(S(=O)OCc2c(C)c(C)c(COS(=O)c3ccc(C)cc3)c(C)c2C)cc1 (stereo unspecified) | > 100 µM (inactive) | 31.6 µM (inactive) | > 100 µM (inactive) | > 100 µM (inactive) |  | > 100 µM (inactive) | > 100 µM (inactive) | > 100 µM (inactive) | > 100 µM (inactive)
Cc1nc2ccccc2c(=O)n1NC(=S)Nc1ccc(Cl)cc1[N+](=O)[O-] | > 100 µM (inactive) |  | > 100 µM (inactive) |  |  | > 100 µM (inactive) | > 100 µM (inactive) |  | 
CNC(=O)CN(CC(=O)O)C(=O)NC |  | > 100 µM (inactive) | > 100 µM (inactive) |  | > 100 µM (inactive) | > 100 µM (inactive) |  | > 100 µM (inactive) | > 100 µM (inactive)
COc1ccc(C2C(Cl)C(=O)N2n2cnc3ccccc3c2=O)cc1OC (stereo unspecified) | > 100 µM (inactive) | > 100 µM (inactive) | > 100 µM (inactive) | 25.3 µM (inactive) |  | > 100 µM (inactive) | > 100 µM (inactive) | > 100 µM (inactive) | > 100 µM (inactive)
C[P+](C)(CC(F)(F)F)c1ccccc1 | > 100 µM (inactive) | > 100 µM (inactive) | > 100 µM (inactive) | > 100 µM (inactive) |  | > 100 µM (inactive) | > 100 µM (inactive) | < 0.01 µM (active) | > 100 µM (inactive)
O=C(CC1(O)C(=O)Nc2c(Cl)cc(Cl)cc21)c1ccc(Br)cc1Br (stereo unspecified) | 6.56 µM (inactive) | 22.5 µM (inactive) | 9.04 µM (inactive) | 14.4 µM (inactive) | 4.66 µM (inactive) |  | 18.6 µM (inactive) | 11.6 µM (inactive) | 7.05 µM (inactive)
N#CCN1CCOCCOCCN(CC#N)CCOCCOCC1 | > 100 µM (inactive) | > 100 µM (inactive) | > 100 µM (inactive) | > 100 µM (inactive) | > 100 µM (inactive) | > 100 µM (inactive) | > 100 µM (inactive) |  | 
COc1cc2c(cc1OC)c1c(OC)c(OC)cc3c1c1c2sc(=S)n1CC3 | 29.3 µM (inactive) | > 100 µM (inactive) | 34.4 µM (inactive) | > 100 µM (inactive) |  | 35.1 µM (inactive) | > 100 µM (inactive) |  | 53.1 µM (inactive)
C#CC1/C(=C\C(=O)OC)CCCC1O (stereo unspecified) | > 100 µM (inactive) | > 100 µM (inactive) | > 100 µM (inactive) | > 100 µM (inactive) |  | > 100 µM (inactive) | > 100 µM (inactive) | > 100 µM (inactive) | > 100 µM (inactive)
COc1cc(OC)c2c(=O)c3c([N+](=O)[O-])cccc3n(C)c2c1 | > 100 µM (inactive) | > 100 µM (inactive) | > 100 µM (inactive) | > 100 µM (inactive) |  | > 100 µM (inactive) | > 100 µM (inactive) |  | > 100 µM (inactive)
CC(=O)OC1COC(N2C(=O)/C(=N\Nc3ccc([N+](=O)[O-])cc3)c3cc(Br)c([N+](=O)[O-])cc32)C(OC(C)=O)C1OC(C)=O (stereo unspecified) |  | 27.2 µM (inactive) | > 100 µM (inactive) | > 100 µM (inactive) | 22.2 µM (inactive) | 21.8 µM (inactive) | 32.1 µM (inactive) | 32.8 µM (inactive) | 35.2 µM (inactive)
CC(=O)Oc1cc2c(cc1OC(C)=O)C1(C)CCC2(C)c2cc(OC(C)=O)c(OC(C)=O)cc21 |  | 16 µM (inactive) | 9.04 µM (inactive) |  | 23.2 µM (inactive) | 4.99 µM (inactive) | 26 µM (inactive) | 11.4 µM (inactive) | 19.4 µM (inactive)
C=C(C)C(=O)OC1CC2=CC(CC3(C)OC3C3OC(=O)C(=C)C13)OC2=O (stereo unspecified) | 15.2 µM (inactive) | 12.1 µM (inactive) | 6.62 µM (inactive) | 19.9 µM (inactive) | 15.8 µM (inactive) | 2.51 µM (inactive) | 15 µM (inactive) |  | 12.9 µM (inactive)
CC(C)N1CN(C(C(=O)N[C@@H]2C(=O)N3C2SC(C)(C)C3C(=O)O)c2ccccc2)CSC1=S (stereo partly specified) | 48.5 µM (inactive) | > 100 µM (inactive) | > 100 µM (inactive) | > 100 µM (inactive) |  | > 100 µM (inactive) | > 100 µM (inactive) | > 100 µM (inactive) | > 100 µM (inactive)
CN(N=O)C(=O)N(N)CCCCC(NC(=O)OCc1ccccc1)C(=O)OCc1ccccc1 (stereo unspecified) | 44 µM (inactive) | 31.9 µM (inactive) | 36.1 µM (inactive) |  |  | 53.2 µM (inactive) | > 100 µM (inactive) | 8.41 µM (inactive) | 32.2 µM (inactive)
OC(c1ccccc1)(c1ccccc1)c1cccnc1 | > 100 µM (inactive) | > 100 µM (inactive) | > 100 µM (inactive) | > 100 µM (inactive) |  |  | > 100 µM (inactive) | > 100 µM (inactive) | > 100 µM (inactive)
CC1=C(C(=O)NCc2ccccc2)C(c2ccccc2O)C(C(=O)NCc2ccccc2)=C(C)N1 | 18.2 µM (inactive) | 27.9 µM (inactive) | 18.2 µM (inactive) | 23.9 µM (inactive) |  | 15 µM (inactive) | 19.9 µM (inactive) | 17 µM (inactive) | 14.6 µM (inactive)
O=C1CCCC1NC(=O)C(F)(F)F (stereo unspecified) |  | > 100 µM (inactive) | > 100 µM (inactive) |  |  | > 100 µM (inactive) |  | > 100 µM (inactive) | > 100 µM (inactive)
O=C(O)CN(c1ccccc1)S(=O)(=O)c1ccccc1[N+](=O)[O-] |  |  | > 100 µM (inactive) | > 100 µM (inactive) | > 100 µM (inactive) | > 100 µM (inactive) | > 100 µM (inactive) | > 100 µM (inactive) | > 100 µM (inactive)
CN1CCN(CN2C(=O)C3C4C=CC(C3C2=O)C2C3C(=O)N(CN5CCN(C)CC5)C(=O)C3C42)CC1 (stereo unspecified) | 17.9 µM (inactive) |  |  |  |  | 19.9 µM (inactive) | 25 µM (inactive) |  | 
COc1ccc(NC(=O)c2cc(OC)c(OC)c(OC)c2)cc1 | 25.7 µM (inactive) | 42.7 µM (inactive) | 41.7 µM (inactive) | > 64.6 µM (inactive) | > 56.4 µM (inactive) | 51.8 µM (inactive) | 32.7 µM (inactive) | > 100 µM (inactive) | 29.1 µM (inactive)
CCOC(=O)Nc1cc2c(c(N)n1)N=C(c1ccccc1)[C@H](C)N2 [MIVOBULIN ISETHIONATE] | < 0.0001 µM (active) | 0.01 µM (active) | < 0.0001 µM (active) | 0.641 µM (active) |  | < 0.0001 µM (active) | < 0.0001 µM (active) | < 0.0001 µM (active) | < 0.0001 µM (active)
